Data from ChEMBL document CHEMBL3885881, “DrugMatrix”.

Species: Rattus norvegicus
Test: DrugMatrix - Regimen: Daily Repeat
Assay type: toxicity, organism-based, Sprague-Dawley
Parameters: regimen Daily Repeat, gender Male, age 6-8 weeks
Conditions: in vivo, po, route oral GAVAGE, vehicle .5 % CMC; for ABSOLUTE BASOPHIL / ABSOLUTE EOSINOPHIL / ABSOLUTE LYMPHOCYTE / ABSOLUTE MONOCYTE / ABSOLUTE SEGMENTED NEUTROPHIL / BASOPHIL / EOSINOPHIL / ERYTHROCYTE COUNT / HEMATOCRIT / HEMOGLOBIN / LEUKOCYTE COUNT / LYMPHOCYTE / MEAN CORPUSCULAR HEMOGLOBIN / MEAN CORPUSCULAR HEMOGLOBIN CONCENTRATION / MEAN CORPUSCULAR VOLUME / MONOCYTE / NEUTROPHIL / NUCLEATED RED BLOOD CELLS / PLATELET COUNT: tissue Blood; for ALANINE AMINOTRANSFERASE / ALBUMIN / ALKALINE PHOSPHATASE / ASPARTATE AMINOTRANSFERASE / BLOOD UREA NITROGEN / CARBON DIOXIDE / CHLORIDE / CHOLESTEROL / CREATINE PHOSPHOKINASE / CREATININE / GLUCOSE / LACTATE DEHYDROGENASE / LIPASE / PHOSPHORUS / POTASSIUM / SODIUM / TOTAL BILIRUBIN / TOTAL PROTEIN / URIC ACID: tissue Plasma
[1] = 0 mg/kg, 72 h, dose level Control, time 3 day
[2] = 0 mg/kg, 120 h, dose level Control, time 5 day
[3] = 15 mg/kg, 72 h, dose level Low, time 3 day
[4] = 15 mg/kg, 120 h, dose level Low, time 5 day

In the case of C[C@@H]1O[C@@H](O[C@H]2C[C@@H](O)[C@]3(CO)[C@H]4[C@H](O)C[C@]5(C)[C@@H](C6=CC(=O)OC6)CC[C@]5(O)[C@@H]4CC[C@]3(O)C2)[C@H](O)[C@H](O)[C@H]1O [OUABAIN], the “ABSOLUTE BASOPHIL” value [1] was 0 CELLS/uL, the “ABSOLUTE EOSINOPHIL” value [1] was 130.33 CELLS/uL and the “ABSOLUTE LYMPHOCYTE” value [1] was 10030.67 CELLS/uL. For the same compound, the “ABSOLUTE MONOCYTE” value [1] was 41 CELLS/uL, the “ABSOLUTE SEGMENTED NEUTROPHIL” value [1] was 1298 CELLS/uL and the BASOPHIL [1] was 0%. The EOSINOPHIL [1] was 1%, the “ERYTHROCYTE COUNT” value [1] was 5.22 x10E6/uL and the HEMATOCRIT [1] was 33.53%. For the same compound, the HEMOGLOBIN [1] was 12.73 G/DL, the “LEUKOCYTE COUNT” value [1] was 11.5 x10E3/uL and the LYMPHOCYTE [1] was 87.67%. For the same compound, the “MEAN CORPUSCULAR HEMOGLOBIN” value [1] was 24.45 pg, the “MEAN CORPUSCULAR HEMOGLOBIN CONCENTRATION” value [1] was 37.97 G/DL and the “MEAN CORPUSCULAR VOLUME” value [1] was 64.33 fL. For the same compound, the MONOCYTE [1] was 0.33%, the NEUTROPHIL [1] was 11% and the “NUCLEATED RED BLOOD CELLS” value [1] was 0 /100WBC. For the same compound, the “PLATELET COUNT” value [1] was 1310.5 x10E3/uL, the “ALANINE AMINOTRANSFERASE” value [1] was 52 u/L and the ALBUMIN [1] was 4.22 G/DL. For the same compound, the “ALKALINE PHOSPHATASE” value [1] was 340.17 u/L, the “ASPARTATE AMINOTRANSFERASE” value [1] was 87.5 u/L and the “BLOOD UREA NITROGEN” value [1] was 15.17 mg/dL. The “CARBON DIOXIDE” value [1] was 25.5 mmol/L, the CHLORIDE [1] was 101.83 MEQ/L and the CHOLESTEROL [1] was 68.17 mg/dL. For the same compound, the “CREATINE PHOSPHOKINASE” value [1] was 379.67 u/L, the CREATININE [1] was 0.17 mg/dL and the GLUCOSE [1] was 181.67 mg/dL. For the same compound, the “LACTATE DEHYDROGENASE” value [1] was 256.17 u/L, the LIPASE [1] was 8 u/L and the PHOSPHORUS [1] was 12.1 mg/dL. For the same compound, the POTASSIUM [1] was 5.88 MEQ/L, the SODIUM [1] was 143.67 MEQ/L and the “TOTAL BILIRUBIN” value [1] was 0.18 mg/dL. For the same compound, the “TOTAL PROTEIN” value [1] was 5.92 G/DL, the “URIC ACID” value [1] was 1.7 mg/dL and the “ABSOLUTE BASOPHIL” value [2] was 0 CELLS/uL. The “ABSOLUTE EOSINOPHIL” value [2] was 31 CELLS/uL, the “ABSOLUTE LYMPHOCYTE” value [2] was 9599.17 CELLS/uL and the “ABSOLUTE MONOCYTE” value [2] was 52.83 CELLS/uL. For the same compound, the “ABSOLUTE SEGMENTED NEUTROPHIL” value [2] was 1050.33 CELLS/uL, the BASOPHIL [2] was 0% and the EOSINOPHIL [2] was 0.33%. The “ERYTHROCYTE COUNT” value [2] was 5.53 x10E6/uL, the HEMATOCRIT [2] was 35.8% and the HEMOGLOBIN [2] was 13.53 G/DL. The “LEUKOCYTE COUNT” value [2] was 10.73 x10E3/uL, the LYMPHOCYTE [2] was 89% and the “MEAN CORPUSCULAR HEMOGLOBIN” value [2] was 24.47 pg. For the same compound, the “MEAN CORPUSCULAR HEMOGLOBIN CONCENTRATION” value [2] was 37.82 G/DL, the “MEAN CORPUSCULAR VOLUME” value [2] was 64.7 fL and the MONOCYTE [2] was 0.5%. For the same compound, the NEUTROPHIL [2] was 10.17%, the “NUCLEATED RED BLOOD CELLS” value [2] was 0 /100WBC and the “PLATELET COUNT” value [2] was 1028.5 x10E3/uL. For the same compound, the “ALANINE AMINOTRANSFERASE” value [2] was 45.33 u/L, the ALBUMIN [2] was 4.33 G/DL and the “ALKALINE PHOSPHATASE” value [2] was 351.83 u/L. For the same compound, the “ASPARTATE AMINOTRANSFERASE” value [2] was 73.5 u/L, the “BLOOD UREA NITROGEN” value [2] was 17.83 mg/dL and the “CARBON DIOXIDE” value [2] was 24.67 mmol/L. The CHLORIDE [2] was 100 MEQ/L, the CHOLESTEROL [2] was 67 mg/dL and the “CREATINE PHOSPHOKINASE” value [2] was 284 u/L. For the same compound, the CREATININE [2] was 0.2 mg/dL, the GLUCOSE [2] was 152.33 mg/dL and the “LACTATE DEHYDROGENASE” value [2] was 108.67 u/L. For the same compound, the LIPASE [2] was 8.17 u/L, the PHOSPHORUS [2] was 11.17 mg/dL and the POTASSIUM [2] was 6.14 MEQ/L. For the same compound, the SODIUM [2] was 144.68 MEQ/L, the “TOTAL BILIRUBIN” value [2] was 0.22 mg/dL and the “TOTAL PROTEIN” value [2] was 6.08 G/DL. For the same compound, the “URIC ACID” value [2] was 1.27 mg/dL, the “ABSOLUTE BASOPHIL” value [3] was 0 CELLS/uL and the “ABSOLUTE EOSINOPHIL” value [3] was 189.33 CELLS/uL. The “ABSOLUTE LYMPHOCYTE” value [3] was 10886.33 CELLS/uL, the “ABSOLUTE MONOCYTE” value [3] was 47.33 CELLS/uL and the “ABSOLUTE SEGMENTED NEUTROPHIL” value [3] was 1443.67 CELLS/uL. The BASOPHIL [3] was 0%, the EOSINOPHIL [3] was 1.33% and the “ERYTHROCYTE COUNT” value [3] was 5.55 x10E6/uL. The HEMATOCRIT [3] was 35.67%, the HEMOGLOBIN [3] was 13.2 G/DL and the “LEUKOCYTE COUNT” value [3] was 12.57 x10E3/uL. The LYMPHOCYTE [3] was 86.67%, the “MEAN CORPUSCULAR HEMOGLOBIN” value [3] was 23.77 pg and the “MEAN CORPUSCULAR HEMOGLOBIN CONCENTRATION” value [3] was 37 G/DL. For the same compound, the “MEAN CORPUSCULAR VOLUME” value [3] was 64.2 fL, the MONOCYTE [3] was 0.33% and the NEUTROPHIL [3] was 11.67%. For the same compound, the “NUCLEATED RED BLOOD CELLS” value [3] was 0 /100WBC, the “PLATELET COUNT” value [3] was 1296 x10E3/uL and the “ALANINE AMINOTRANSFERASE” value [3] was 52.67 u/L. The ALBUMIN [3] was 4.2 G/DL, the “ALKALINE PHOSPHATASE” value [3] was 382.67 u/L and the “ASPARTATE AMINOTRANSFERASE” value [3] was 73.67 u/L. The “BLOOD UREA NITROGEN” value [3] was 15 mg/dL, the “CARBON DIOXIDE” value [3] was 27 mmol/L and the CHLORIDE [3] was 99 MEQ/L. For the same compound, the CHOLESTEROL [3] was 70.33 mg/dL, the “CREATINE PHOSPHOKINASE” value [3] was 215.33 u/L and the CREATININE [3] was 0.16 mg/dL. For the same compound, the GLUCOSE [3] was 166.33 mg/dL, the “LACTATE DEHYDROGENASE” value [3] was 88 u/L and the LIPASE [3] was 8 u/L. For the same compound, the PHOSPHORUS [3] was 12.23 mg/dL, the POTASSIUM [3] was 6.54 MEQ/L and the SODIUM [3] was 144.1 MEQ/L. The “TOTAL BILIRUBIN” value [3] was 0.27 mg/dL, the “TOTAL PROTEIN” value [3] was 5.93 G/DL and the “URIC ACID” value [3] was 1.97 mg/dL. For the same compound, the “ABSOLUTE BASOPHIL” value [4] was 0 CELLS/uL, the “ABSOLUTE EOSINOPHIL” value [4] was 66.67 CELLS/uL and the “ABSOLUTE LYMPHOCYTE” value [4] was 12127.33 CELLS/uL. The “ABSOLUTE MONOCYTE” value [4] was 105.67 CELLS/uL, the “ABSOLUTE SEGMENTED NEUTROPHIL” value [4] was 1600.33 CELLS/uL and the BASOPHIL [4] was 0%. The EOSINOPHIL [4] was 0.67%, the “ERYTHROCYTE COUNT” value [4] was 5.76 x10E6/uL and the HEMATOCRIT [4] was 36.63%. For the same compound, the HEMOGLOBIN [4] was 13.7 G/DL, the “LEUKOCYTE COUNT” value [4] was 13.9 x10E3/uL and the LYMPHOCYTE [4] was 88.33%. The “MEAN CORPUSCULAR HEMOGLOBIN” value [4] was 23.77 pg, the “MEAN CORPUSCULAR HEMOGLOBIN CONCENTRATION” value [4] was 37.4 G/DL and the “MEAN CORPUSCULAR VOLUME” value [4] was 63.6 fL. The MONOCYTE [4] was 0.67%, the NEUTROPHIL [4] was 10.33% and the “NUCLEATED RED BLOOD CELLS” value [4] was 0 /100WBC. The “PLATELET COUNT” value [4] was 1337.67 x10E3/uL, the “ALANINE AMINOTRANSFERASE” value [4] was 44 u/L and the ALBUMIN [4] was 4.3 G/DL. For the same compound, the “ALKALINE PHOSPHATASE” value [4] was 417.67 u/L, the “ASPARTATE AMINOTRANSFERASE” value [4] was 84.33 u/L and the “BLOOD UREA NITROGEN” value [4] was 17.33 mg/dL. The “CARBON DIOXIDE” value [4] was 25.67 mmol/L, the CHLORIDE [4] was 102.33 MEQ/L and the CHOLESTEROL [4] was 74.67 mg/dL. The “CREATINE PHOSPHOKINASE” value [4] was 260 u/L, the CREATININE [4] was 0.26 mg/dL and the GLUCOSE [4] was 167.33 mg/dL. For the same compound, the “LACTATE DEHYDROGENASE” value [4] was 187.67 u/L, the LIPASE [4] was 8.67 u/L and the PHOSPHORUS [4] was 11.83 mg/dL. For the same compound, the POTASSIUM [4] was 6.55 MEQ/L, the SODIUM [4] was 145.07 MEQ/L and the “TOTAL BILIRUBIN” value [4] was 0.17 mg/dL. The “TOTAL PROTEIN” value [4] was 6.2 G/DL and the “URIC ACID” value [4] was 1.8 mg/dL.
